Measured values reported in patent publication US9572911B2, “Method for decellularization of tissue grafts” (University of Florida Research Foundation, Inc., priority 2013, dated 2017).

Molecular target: purified laminin-1 (Homo sapiens, UniProt P07942+P11047+P25391)
Assay: Effects of individual detergents on the neurite-promoting activity of purified laminin
Format: cell-based
Conditions: dialyzed, neurons 24 hours, FIG. 14
Method: FIG. 14. Effects of individual detergents on the neurite-promoting activity of purified laminin. Purified laminin-1 was mixed with individual detergents as follows: Control (buffer alone), sulfobetaine-10 (125 mM), sulfobetaine-16 (0.6 mM) and […] (0.14%). The mixtures were extensively dialyzed and then were added to tissue culture wells to form a substratum onto which dissociated neurons were seeded. After 24 hours in culture the length of neurites were measured. Data represent the specific activities (ED50) calculated from mean scores from dilution series performed in duplicates in 4 separate experiments
The extracellular matrix of nerve is known to promote the growth of axons. In particular, the basal lamina tubes encasing axons provides a potent stimulus for axonal growth in nerve regeneration. The cryoculture assay used in the experiments described above relies on the structure and growth-promoting activity of the basal lamina. It is well documented that laminin is the major neurite-promoting component of the nerve basal lamina. […] Therefore, tests were performed to examine the effects of individual detergents on purified laminin. Laminin activity was unchanged by SB-10. Exposure to SB-16 reduced laminin activity approximately 50%.

| laminin neurite-promoting activity after exposure to detergent (SB-10 125 mM, SB-16 0.6 mM, Triton X-200 0.14%) | reduction of laminin activity (sulfobetaine-16 0.6 mM) | SMILES |
| --- | --- | --- |
| unchanged | – | CCCCCCCCCC[N+](C)(C)CCCS(=O)(=O)[O-] [SB-10, sulfobetaine-10] |
| – | approximately 50% | CCCCCCCCCCCCCCCC[N+](C)(C)CCCS(=O)(=O)[O-] [SB-16, sulfobetaine-16] |
